These results are taken from patent US4243678A, “Acylhydrocarbylaminoalkanoic acids, compositions and uses” (Byk Gulden Lomberg Chemische Fabrik GmbH, priority 1977, dated 1981).

The subject of one series is stomach ulcer. Put plainly: Antiulcerogenic (stomach-protective) action, pylorus ligature and acetylsalicylic acid. Format: in vivo, rat (female). The settings on record: 4 h; rat, intraduodenally; Table IV; read-out: ED50 antiulcerogenic action (dose which reduces the mean ulcer index by 50%). On the procedure: (§1) The ulcer provocation is carried out on rats which have been made to fast for 24 hours (female, 180 to 200 g) by ligature of the pylorus (under ether narcosis) and the oral application of 100 mg/10 ml/kg acetylsalicylic acid. The administration of the substances was carried out intraduodenally (2.5 ml/kg) immediately after the ligature of the pylorus. The closure of the wound was carried out by means of Michel clamps. 4 hours after this, the animals were autopsied (while inebriated with ether) by dislocation of the atlas, and the stomach was resected. The stomach, opened longitudinally, is fixed on a cork board and, using a stereomicroscope with an enlargement of 10×, the number and size (=diameter) of any ulcers present were determined. The product of the degree of severity (according to the following scale of points) and the number of ulcers was used as the individual ulcer index.
(§2) As a measure of antiulcerogenic effect the reduction in the mean ulcer index of each treated group, as compared with that of the control group (=100%), was used.

Assay in series [1]: as above
Format: in vivo, rat (female). The settings on record: in vivo; LD50 mouse i.p. / ED50 rat i.d.; Table IV; read-out: TQ (LD50/ED50), antiulcerogenic action. The protocol:
as §1, §2

Series [2] has as its system glucose formation from lactate and pyruvate in isolated perfused liver. Put plainly: Inhibition of the formation of glucose from lactate and pyruvate in the isolated perfused rat liver. Set-up: species or system rat (male Sprague-Dawley). The conditions noted are these: Table VIII; for Glucose formation, % change: 0.2 mmole/liter in the perfusate, isolated perfused liver of fasting rats; for ED50 inhibition of formation of glucose from lactate and pyruvate: from 4 concentrations, 0.02 to 1.00 mmol/liter. The protocol:
For this purpose young male Sprague-Dawley rats (160 to 200 g) are used. The rats are kept in cages of up to 5 animals in a temperature-controlled room (23° C.) with a fixed day/night rhythm (12/12 hours).
Food is withheld from the animals for from 20 to 22 hours prior to the operation. They are allowed to take water ad lib. The operation and the perfusion of the liver are carried out using the technique of R. Scholz et al. [Eur. J. Biochem. 38 (1973) 64 to 72]. The perfusion liquid used is Krebs-Henseleit bicarbonate buffer (pH 7.4), which is saturated with an oxygen/carbon dioxide mixture (95/5) and contains 1.6 mmol/liter of L-lactate and 0.2 mmol/liter of pyruvate. The perfusion liquid is pumped into the liver via a cannula inserted into the portal vein. The effluent perfusion liquid is collected via a cannula inserted into the Vena cava. The liver is perfused for about 2 hours. The test compounds are infused for 16 minutes each from the 32nd to the […] after the perfusion in increasing concentrations (0.02 to 1.00 mmol/liter).
Samples of the effluent perfusion liquid are collected at one-minute intervals and analyzed for glucose, lactate and pyruvate (using standard enzymatic methods). The percentages shown in Table VIII relate to the condition occurring before and after the administration of the compounds, the changes caused solely by lactate and pyruvate being set as being equal to 100%.

Series [3] in a line: Determination of toxicity (lethal action on the mouse after intraperitoneal application). Format: in vivo. The conditions noted are these: in vivo, ip, mouse. The protocol:
The toxicity investigations are carried out on female NMRI mice (body weight 22 to 26 g). The animals (5 animals per dose) are given food and water ad lib. Different doses of the substances are administered intraperitoneally. The duration of observation is 14 days. The LD50, i.e. the dose at which 50% of the animals die, is determined graphically from the dose/effect curve.

A further series deals with liver damage by CCl4. Put plainly: Antihepatotoxic effect: duration of hexobarbital sleep of the rat after liver damage by CCl4. The settings on record: Rattus norvegicus, po; for ED25: read-out: ED25 antihepatotoxic effect (shortens hexobarbital narcosis by 25%); for ED50: read-out: ED50 antihepatotoxic effect (shortens hexobarbital narcosis by 50%). The protocol: (§3) The compounds to be tested are administered 1 hour prior to the administration of CCl4 orally in a liquid volume of 10 ml/kg.
(§4) The antihepatotoxic effect of the compounds to be tested (sodium salts in aqueous solution) is determined by the reduction of the prolongation of sleeping period caused by the CCl4 liver cell damage in the groups treated, as compared with the prolongation of the sleeping period of the CCl4 control group (=100%). […]

Assay in series [4]: as above
The settings on record: rat, in vivo, Table V. The protocol: as §3, §4

A further series has as its system pancreatic secretion. Nature of the series: Influence on pancreatic secretion of the narcotized rat. Format: in vivo, rat (male Sprague-Dawley). The conditions noted are these: 0.5 h; narcotized rat, i.d.; liquid volume, 30 min fraction; Table VII; read-out: ED50 pancreatic secretion (dose which brings about an increase in pancreatic secretion of a maximum of 50%). The source says:
(§5) Male Sprague-Dawley rats (body weight from 250 to 300 g) are narcotized with 1.2 g/kg urethane i.m. Then the abdominal cavity is opened medially, the bile duct is ligatured shortly above the place where it leads into the duodenum and also near to the hepatic duct, and both sections are catheterized towards the liver.
(§6) As in the rat all the pancreatic ducts lead out into the central section of the bile duct; it is possible in this way to discharge the pancreatic secretion separately from the distal (ligatured) section and the bile separately from the proximal section of the bile duct.
(§7) The quantities of pancreatic juice and bile juice obtained are measured at intervals of 30 minutes over a period from 2 hours before to 3 hours after the intraduodenal (V. jugularis externa) administration of the compounds to be tested (quantity of liquid administered 5 ml/kg).
(§8) The body temperature of the animals is maintained at 36° to 38° C. by means of electric blankets and radiation; the temperature is monitored rectally.
(§9) The liquid volumes of the 30-minute fractions after the administration of the substance are related in each case to the quantity of bile or pancreatic juice secreted prior to the application of the substance (=100%, mean of the last two measurements). The maximum percentage increase in the pancreatic or bile secretion is represented in dependence upon dose, and from this the ED50 is determined by interpolation.

Assay in series [5]: as above
Format: in vivo, rat (male Sprague-Dawley). The conditions noted are these: in vivo; LD50 mouse i.p. / ED50 rat i.d.; Table VII; read-out: TQ [LD50/ED50], pancreatic secretion.
Source text: as §5, §6, §7, §8, §9

Another series concerns bile secretion. Nature of the series: Influence on bile secretion (choleresis) of the narcotized rat. The conditions noted are these: 0.5 h; narcotized rat, i.d.; liquid volume, 30 min fraction; Table II; read-out: ED50 bile secretion (dose which brings about an increase in the bile secretion by a maximum of 50%). In kind it is in vivo, rat (male Sprague-Dawley).
Source text: as §5, §6, §7, §8, §9

Assay in series [6]: as above
Format: in vivo, rat (male Sprague-Dawley). The conditions noted are these: in vivo; LD50 mouse i.p. / ED50 rat i.d.; Table II; read-out: TQ (LD50/ED50), bile secretion.
Source text: as §5, §6, §7, §8, §9

The mark [7] stands for this setting: TQ LD50/ED25, antihepatotoxic effect, LD50 mouse i.p. / ED25 rat p.o.
[8] abbreviates: TQ LD50/ED50, antihepatotoxic effect, LD50 mouse i.p. / ED50 rat p.o.

Usually ED50 stands for the dose that gives a 50% effect, or the effect in half of the subjects. For orientation: LD50 means the dose expected to kill half of the subjects tested. Read a high LD50 as a less toxic substance. Regarding `O=C(O)CCCN(C(=O)c1ccc(Cl)cc1)c1ccccc1-c1ccccc1` [Serial No. 31, 4-[p-chloro-N-(biphenyl-2-yl)benzamido]butyric acid], the ED50 worked out at 35 mg/kg in the series on stomach ulcer, 3.5 mg/kg in the series with liver damage by CCl4 and 1 mg/kg in the series on pancreatic secretion. Moreover, the selectivity ratio is 5.1 in series [1], more than 180 in series [4] (setting [7]), 51.4 in series [4] (setting [8]) and 180 in series [5]. The “Glucose formation, % change” value in series [2] is given as -79%. For the same compound, the “ED50 inhibition of formation of glucose from lactate and pyruvate” value (“ED50 inhibition of formation of glucose” below) in [2] worked out at 43 µg/mL. Moreover, in [3] (Table IV), the LD50 at 336 h was found to be 180 mg/kg. Moreover, in the series with liver damage by CCl4, the ED25 was less than 1 mg/kg.
On to `C#CC(CC)(CC)N(CCCC(=O)O)C(=O)c1ccc(Cl)cc1` [Serial No. 4, N-(p-chloro)benzoyl-4-[(3-ethyl-1-pentyn-3-yl)amino]butyric acid], for which the LD50 at 336 h in [3] (Table II) amounted to 200 mg/kg. In addition, the ED50 in the series on bile secretion was approximately 5 mg/kg. Also, the selectivity ratio in series [6] is approximately 40.
In series [3] (Table II), `CC(C)(C)N(CCCC(=O)O)C(=O)c1ccc(Cl)cc1` [Serial No. 2, N-(p-chloro)benzoyl-4-(tert.-butylamino)butyric acid] came in with an LD50 at 336 h of 850 mg/kg. Also, the ED50 with bile secretion came out at 15 mg/kg. Moreover, the selectivity ratio in series [6] came to 57.
Consider `O=C(O)CCCN(C(=O)c1ccc(F)cc1)c1ccccc1-c1ccccc1` [Serial No. 26, 4-[p-fluoro-N-(biphenyl-2-yl)benzamido]butyric acid], for which the figures for the ED50 in the series with stomach ulcer, with liver damage by CCl4 and with pancreatic secretion were approximately 55 mg/kg, 2.8 mg/kg and 2.5 mg/kg, respectively. The selectivity ratio is approximately 3.8 in series [1], 131 in series [4] (setting [7]), 75 in series [4] (setting [8]) and 84 in series [5]. Besides, the “Glucose formation, % change” value in series [2] is -51%. For the same compound, in series [2], the “ED50 inhibition of formation of glucose” value worked out at 76 µg/mL. Also, in [3] (Table IV), the LD50 at 336 h was determined as 210 mg/kg. The ED25 in the series with liver damage by CCl4 is 1.6 mg/kg.
Turning to `O=C(O)CCCN(C(=O)c1cccc(C(F)(F)F)c1)c1ccccc1-c1ccccc1` [Serial No. 25, 4-[m-trifluoromethyl-N-(biphenyl-2-yl)benzamido]butyric acid], the ED50 in the series with stomach ulcer came out at 10 mg/kg; in the series on liver damage by CCl4, 30 mg/kg; in the series on pancreatic secretion, 1 mg/kg. For the same compound, the selectivity ratio amounted to 11 in series [1], 11 in [4] (setting [7]), 3.7 in series [4] (setting [8]) and 110 in [5]. In [2], the “Glucose formation, % change” value is -77%. In addition, the “ED50 inhibition of formation of glucose” value in [2] was 34 µg/mL. This compound also had an LD50 at 336 h in series [3] (Table IV) of 110 mg/kg. In the series on liver damage by CCl4, the ED25 stood at 10 mg/kg.
Take `O=C(O)CCCCCN(C(=O)c1ccc(Cl)cc1)c1ccccc1-c1ccccc1` [Serial No. 24, 6-[p-chloro-N-(biphenyl-2-yl)benzamido]caproic acid]: the values for the ED50 with stomach ulcer and with liver damage by CCl4 were approximately 40 mg/kg and 14 mg/kg, respectively. For the same compound, the results for the selectivity ratio in series [1], in series [4] (setting [7]) and in series [4] (setting [8]) were approximately 3.3, approximately 14.4 and 9.3, respectively. Further, in series [2], the “Glucose formation, % change” value was -99%. In series [2], the “ED50 inhibition of formation of glucose” value came out at 23 µg/mL. This compound returned an LD50 at 336 h in [3] (Table IV) of 130 mg/kg. Besides, in the series on liver damage by CCl4, the ED25 is approximately 9 mg/kg.
Take `CCC(C)(C)N(CCCC(=O)O)C(=O)c1ccc(Cl)cc1Cl` [Serial No. 11, N-(2,4-dichloro)benzoyl-4-[(1,1-dimethylpropyl)amino]butyric acid]: in series [3] (Table II), the LD50 at 336 h was 190 mg/kg. In addition, the ED50 in the series with bile secretion turned out to be 6 mg/kg. In addition, the selectivity ratio in series [6] turned out to be 32.
